Drug sensitivity score data for 39 compounds are collected here from the supplement of paper PMC8024199.

Holding throughout (test): drug sensitivity score (DSS) (DSS score); higher = more sensitive (stronger growth inhibition); extreme values may be limits of the assay
Assay [1] deals with Ba/F3 P210-BCR-ABL1 RUNX1-/- (mouse). Summed up: (§1)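 Each value is a drug sensitivity score derived from CellTiter-Glo luminescence scaled between vehicle and positive-control wells. Mouse Ba/F3 clones, CRISPR/Cas9-edited at a target exon or edited controls, were seeded at 10,000 cells per well in RPMI with 10% FBS and treated for 72 h at 37 °C and 5% CO2. Compounds from a 528-compound library were tested at five concentrations over a 10,000-fold range, and scores were averaged over two replicates.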

The test system of assay [2] is Ba/F3 P210-BCR-ABL1 RUNX1-/mut (mouse). An outline of the steps:
as §1

Assay [3] has as its system Ba/F3 P210-BCR-ABL1 RUNX1wt/wt control (mouse). An outline of the steps:
as §1

± gives the standard deviation of the averaged measurements.

Take `CNC(=O)c1ccc2cc([C@@]3(O)CCn4cncc43)ccc2c1` [Orteronel]: the drug sensitivity score in assay [1], in assay [2] and in assay [3] was 0 throughout.
As to `C=CC(=O)Nc1cc(Nc2nccc(-c3cn(C)c4ccccc34)n2)c(OC)cc1N(C)CCN(C)C` [Osimertinib], the drug sensitivity score in assay [1] worked out at 5.6 ± 0.28; in assay [2] it was 5.6 ± 0.57; in assay [3] it was 1.25 ± 1.2.
The like results for `O=C(O)C(=O)O.[NH-][C@@H]1CCCC[C@H]1[NH-].[Pt+2]` [Oxaliplatin] were, in that order, 29 ± 0.14, 28.6 ± 0.71 and 25.85 ± 0.21.
On to `C=CCc1cccc(/C=N/NC(=O)CN2CCN(Cc3ccccc3)CC2)c1O` [PAC-1], for which the values for the drug sensitivity score in assay [1], in assay [2] and in assay [3] were 4.95 ± 0.21, 4.65 ± 0.78 and 0.15 ± 0.21, respectively.
For the compound `O=C(Nc1cccnc1)N1CCC(Cc2cccc(Oc3ccc(C(F)(F)F)cn3)c2)CC1` [PF-3845], the drug sensitivity score in assay [1] came to 2.15 ± 0.64; in assay [2] it was 1.9 ± 2.7; in assay [3] it was 2.1 ± 0.14.
Consider `COc1ccccc1S(=O)(=O)Nc1ccc2c(c1)CN(C)C(=O)N2` [PFI-1], for which the drug sensitivity score is 16 ± 2.8 in assay [1], 15.9 ± 3.9 in assay [2] and 9.35 ± 0.071 in assay [3].
The corresponding values for `CN1CCN(c2cc(C(=O)Nc3ccc4c(c3)-c3c(c(C(N)=O)nn3-c3ccc(F)cc3)CC4)c(Cl)cn2)CC1` [PHA 408] are 10.2 ± 1.1, 8.95 ± 1.1 and 7.4 ± 0.57.
The corresponding values for `O=C(Nc1cc(Cl)cc2c1[nH]c1cnccc12)c1cccnc1` [PS-1145] are 0.4 ± 0.57, 0.7 ± 0.99 and 0.
The like results for `COc1cc(Br)c(Nc2nc(-c3c(C)nc4ncccn34)cs2)c(Br)c1` [PTC-209] were, in that order, 9.05 ± 2.6, 7.8 ± 2.4 and 7.5 ± 0.14.
As for `C1=N/C2=N/c3ccc(OCCN4CCCC4)c(c3)COC/C=C/COCc3cccc(c3)C(=C1)N2` [Pacritinib], the drug sensitivity score in assay [1] worked out at 13.8 ± 1.6; in assay [2] it was 10.8 ± 2.6; in assay [3], 7 ± 0.14.
The like results for `CC(=O)c1c(C)c2cnc(Nc3ccc(N4CCNCC4)cn3)nc2n(C2CCCC2)c1=O` [Palbociclib] were, in that order, 11.4 ± 1.3, 8.85 ± 1.1 and 2.25 ± 0.21.
The like results for `COc1ccc(COc2cc3oc(=O)c4cc(C(C)O)ccc4c3cc2OC)cc1` (configuration not stated) [Palomid-529] were, in that order, 0.05 ± 0.071, 1.7 ± 2.4 and 0.4 ± 0.42.
The corresponding values for `Nc1nc2[nH]cc(CCc3ccc(C(=O)N[C@@H](CCC(=O)O)C(=O)O)cc3)c2c(=O)[nH]1` [Pemetrexed] are 27.8 ± 1.6, 27 ± 0.71 and 26.6 ± 0.42.
`CCCCCCCCCCCCCCCCCCOP(=O)([O-])OC1CC[N+](C)(C)CC1` [Perifosine]: the drug sensitivity score in assay [1], in assay [2] and in assay [3] was 0 throughout.
Consider `NS(=O)(=O)OC[C@@H]1C[C@@H](n2ccc3c(N[C@H]4CCc5ccccc54)ncnc32)C[C@@H]1O` [Pevonedistat], for which the drug sensitivity score in assay [1] came out at 16.1 ± 2.4; in assay [2], 15.4 ± 2; in assay [3] it was 7.65 ± 0.21.
The corresponding values for `FC(F)(F)c1ccc(CNc2ccc(Cc3c[nH]c4ncc(Cl)cc34)cn2)cn1` [Pexidartinib] are 0.05 ± 0.071, 0.1 ± 0.14 and 0.1 ± 0.14.
`CC(C)N(C[C@H]1O[C@@H](n2cnc3c(N)ncnc32)[C@H](O)[C@@H]1O)[C@H]1C[C@@H](CCc2nc3cc(C(C)(C)C)ccc3[nH]2)C1` [Pinometostat]: the drug sensitivity score in assay [1], in assay [2] and in assay [3] was 0 in each case.
On to `Cc1ccc(=O)n(-c2ccccc2)c1` [Pirfenidone], for which the drug sensitivity score in assay [1], in assay [2] and in assay [3] was 0 throughout.
With `NCCNc1ccc(NCCN)c2c1C(=O)c1ccncc1C2=O` [Pixantrone], the figures for the drug sensitivity score in assay [1], in assay [2] and in assay [3] were 1.95 ± 1.3, 2.45 ± 1.1 and 0, respectively.
The like results for `c1cc(CN2CCCNCCNCCCNCC2)ccc1CN1CCCNCCNCCCNCC1` [Plerixafor] were, in that order, 0.05 ± 0.071, 0.05 ± 0.071 and 0.
The like results for `Nc1cccc2c1C(=O)N(C1CCC(=O)NC1=O)C2=O` (configuration not stated) [Pomalidomide] were, in that order, 0, 0 and 0.
The corresponding values for `Cc1ccc(C(=O)Nc2ccc(CN3CCN(C)CC3)c(C(F)(F)F)c2)cc1C#Cc1cnc2cccnn12` [Ponatinib] are 36.2 ± 2.4, 31.6 ± 0.28 and 30.2 ± 0.57.
`C=CC(=O)N1CCC(Oc2cc3c(Nc4ccc(Cl)c(Cl)c4F)ncnc3cc2OC)CC1` [Poziotinib]: the drug sensitivity score in assay [1], in assay [2] and in assay [3] was 0 each time.
In the case of `CCCCc1nc2cc(/C=C/C(=O)NO)ccc2n1CCN(CC)CC` [Pracinostat], the drug sensitivity score in assay [1] stood at 20.7 ± 0.57; in assay [2], 19.4 ± 0.35; in assay [3] it was 17.4 ± 0.49.
The corresponding values for `CC[C@H](C)C(=O)O[C@H]1C[C@H](O)C=C2C=C[C@H](C)[C@H](CC[C@@H](O)C[C@@H](O)CC(=O)O)[C@H]21` [Pravastatin] are 0.1 ± 0.14, 0 and 0.1 ± 0.14.
Take `COc1cccc(OCCCN)c1-c1cc(Nc2cnc(C#N)cn2)n[nH]1` [Prexasertib]: the values for the drug sensitivity score in assay [1], in assay [2] and in assay [3] were 32.5 ± 2.5, 31.4 and 30.4 ± 1.3, respectively.
With `Cn1cc(CNCC2CCN(c3ncc(C(=O)NO)cn3)CC2)c2ccccc21` [Quisinostat], the drug sensitivity score in assay [1] was 21.6 ± 1.3; in assay [2], 17.95 ± 0.071; in assay [3] it was 15.3 ± 0.28.
The corresponding values for `Nc1cc(F)ccc1NC(=O)/C=C/c1cnn(C/C=C/c2ccccc2)c1` [RGFP966] are 4.8 ± 1.1, 4.25 ± 0.78 and 1.3 ± 0.28.
The like results for `COC(=O)c1ccc([C@H]2c3[nH]c4ccccc4c3C[C@H](C(=O)OC)N2C(=O)CCl)cc1` [RSL3] were, in that order, 0, 0.3 ± 0.42 and 0.
The like results for `Cc1cnc(NC(=O)Nc2cc(Br)c(C)cc2OC[C@@H]2CNCCO2)cn1` [Rabusertib] were, in that order, 3.25 ± 1.6, 3.3 ± 0.14 and 0.45 ± 0.49.
For `Cc1cn(-c2cc(NC(=O)c3ccc(C)c(Nc4nccc(-c5cnccn5)n4)c3)cc(C(F)(F)F)c2)cn1` [Radotinib], the drug sensitivity score in assay [1] worked out at 28.9 ± 8.2; in assay [2], 30.9 ± 0.64; in assay [3], 27.9 ± 0.14.
The corresponding values for `CC(C)(C)Cn1c(N)nc2ccc(-c3[nH]c(C(C)(C)C)nc3-c3ccc(F)cc3)nc21` [Ralimetinib] are 9.6 ± 3.2, 8 ± 4.2 and 0.7 ± 0.99.
On to `O=C(c1ccc(OCCN2CCCCC2)cc1)c1c(-c2ccc(O)cc2)sc2cc(O)ccc12` [Raloxifene], for which the results for the drug sensitivity score in assay [1], in assay [2] and in assay [3] were 5.4 ± 2.3, 5.05 ± 3.3 and 3.7 ± 1.8, respectively.
The like results for `Cc1nc(=O)c2cc(CN(C)c3ccc(C(=O)N[C@@H](CCC(=O)O)C(=O)O)s3)ccc2[nH]1` [Raltitrexed] were, in that order, 23.4 ± 2.2, 20.3 ± 0.28 and 17.4 ± 0.57.
The corresponding values for `Cn1nccc1Nc1nccc(-c2ccn([C@H](CO)c3ccc(Cl)c(F)c3)c(=O)c2)n1` [Ravoxertinib] are 2.75 ± 2.6, 1.3 ± 1.8 and 0.05 ± 0.071.
The corresponding values for `CCOC(=O)C1=CCCC[C@H]1S(=O)(=O)Nc1ccc(F)cc1Cl` [Resatorvid] are 0, 0 and 0.
For `CCOCc1nc2c(N)nc3ccccc3c2n1CC(C)(C)O` [Resiquimod], the drug sensitivity score in assay [1] was found to be 3.6; in assay [2], 3.6 ± 5.1; in assay [3] it was 0.15 ± 0.21.
The like results for `CN(C)Cc1ccc(S(=O)(=O)n2ccc(/C=C/C(=O)NO)c2)cc1` [Resminostat] were, in that order, 15.8 ± 0.78, 15.2 ± 0.92 and 13.1 ± 0.57.
The corresponding values for `CN(C)C(=O)c1cc2cnc(Nc3ccc(N4CCNCC4)cn3)nc2n1C1CCCC1` [Ribociclib] are 4.6 ± 2.3, 1.85 ± 2.5 and 0.
